According to patent US9353096B2, “Substituted phenylcarbamate compounds” (Hoffmann-La Roche Inc., priority 2012, dated 2016):
Where a name gives a salt, the structure may show the parent alone.

These molecules were tested against hTRPA1 (Homo sapiens, UniProt O75762) (assay: Dose response calcium flux (FLIPR) assay, ChanTest hTRPA1-CHO stably transfected cell line, cinnamaldehyde agonist). Conditions: CHO-K1 Tet-On hTRPA1 cells, 100 uM cinnamaldehyde agonist, 30 min preincubation.
Assay type: cell-based
Method: Dose Response Assay:ChanTest hTRPA1-CHO Stably Transfected Cell Line
CHO-K1 Tet-On_HOMSA_TRPA1_Clone_20
Growth Media for CHO-K1 Tet-On_HOMSA_TRPA1_Clone_20 • Ham's F-12 with 10% tetracycline-free FBS • 1× penicillin-streptomycin • 1× glutamax • 0.01 mg/ml Blasticidin • 0.40 mg/ml Zeocin • The cell line doubling rate was ˜15 h. […] Experiments were run at 24 h post induction.
Plating Conditions CHOK1/TRPA1 Cells: • Harvested cells with 0.025% trypsin/EDTA. • Resuspended cells in growth media without selection antibiotics. • Measured cell density and diluted to 2.4×10^5 cells/ml in media containing 1 ug/ml Doxycycline Plate 25 ul/well into 384 well black/clear tissue culture-treated plates. • Incubated overnight at 37° C.
Replacement Buffer: Hank's Balanced Salt Solution, 20 mM HEPES along with 0.005% BSA and 2× Probenecid
Dye Loading Buffer: Cal-3 NW Calcium dye was prepared by dissolving the contents of one vial with […] Hank's Balanced Salt Solution containing 20 mM HEPES.
AP-18, stock 10 mM, prepare 3.5× compound dilution in a Compound Buffer (HBSS/20 mM HEPES/0.005% BSA)—final concentration 10 uM.
Preparation of Cinnamaldehyde (Agonist Addition): • FW=132.16 • Specific gravity=1.046 gm/cc • 1.32 gm/1.046 gm/cc=1.26 ml of stock • Add 1.74 ml DMSO=3.3 M stock • Working solution 4.5× (final 100 uM in Compound Buffer: HBSS/20 mM HEPES/0.005% BSA)
Compounds dilutions were prepared from 5 or 10 mM stock (100% DMSO): • Adjustments of volumes and concentrations were made at time of titration to reflect desired final assay concentrations. • Compounds were tested at either 20 μM three folds dilution 11 steps out or 30 μM two folds dilution 11 steps out. • 3 μl of diluted compound were transferred into Weidmann 384-well plate in duplicates side-by-side. • Compound plates were resuspended with 100 ul of HBSS/20 mM HEPES/0.005% BSA buffer (Compound Buffer): • column 1A-H: buffer/DMSO (bk) • column 2A-H: AP-18 (control antagonist for CHOK1 TRPA1 cells) • column 1I-P: ATP (control for CHOK1 teton cells) • column 2I-P: 2APB (control antagonist for CHOK1/TRPM8 cells).
Growth media was removed from the cell plates (20 ul) and 20 μl of the Replacement Buffer was added followed by addition of 25 μl of diluted dye. All three steps were performed using a Plate Washer BioTek 407. The plates were then incubated for 30′ at RT.
After incubation, both the cell and compound plates were brought to the FLIPR and 20 μl of the diluted compounds/antagonist/bk were transferred to the cell plates by the FLIPR. Plates were then incubated for 30′ at room temperature. After 30′ incubation, plates were returned to the FLIPR and 20 μl of 4.5× Cinnamaldehyde was added to the cell plates. During the compound addition as well as agonist addition, fluorescence readings were taken simultaneously from all 384 wells of the cell plate every 1.5 seconds. Five readings were taken to establish a stable baseline, then 20 μl of sample was rapidly (30 ul/sec) and simultaneously added to each well of the cell plate. The fluorescence was continuously monitored before, during and after sample/agonist addition for a total elapsed time of 100 seconds (compound addition) and 120 seconds (agonist addition). Responses (increase in peak fluorescence) in each well following agonist addition was determined. The initial fluorescence reading from each well, prior to ligand stimulation, was used a zero baseline value for the data from that well.

Sequence of hTRPA1 (O75762 whole entry): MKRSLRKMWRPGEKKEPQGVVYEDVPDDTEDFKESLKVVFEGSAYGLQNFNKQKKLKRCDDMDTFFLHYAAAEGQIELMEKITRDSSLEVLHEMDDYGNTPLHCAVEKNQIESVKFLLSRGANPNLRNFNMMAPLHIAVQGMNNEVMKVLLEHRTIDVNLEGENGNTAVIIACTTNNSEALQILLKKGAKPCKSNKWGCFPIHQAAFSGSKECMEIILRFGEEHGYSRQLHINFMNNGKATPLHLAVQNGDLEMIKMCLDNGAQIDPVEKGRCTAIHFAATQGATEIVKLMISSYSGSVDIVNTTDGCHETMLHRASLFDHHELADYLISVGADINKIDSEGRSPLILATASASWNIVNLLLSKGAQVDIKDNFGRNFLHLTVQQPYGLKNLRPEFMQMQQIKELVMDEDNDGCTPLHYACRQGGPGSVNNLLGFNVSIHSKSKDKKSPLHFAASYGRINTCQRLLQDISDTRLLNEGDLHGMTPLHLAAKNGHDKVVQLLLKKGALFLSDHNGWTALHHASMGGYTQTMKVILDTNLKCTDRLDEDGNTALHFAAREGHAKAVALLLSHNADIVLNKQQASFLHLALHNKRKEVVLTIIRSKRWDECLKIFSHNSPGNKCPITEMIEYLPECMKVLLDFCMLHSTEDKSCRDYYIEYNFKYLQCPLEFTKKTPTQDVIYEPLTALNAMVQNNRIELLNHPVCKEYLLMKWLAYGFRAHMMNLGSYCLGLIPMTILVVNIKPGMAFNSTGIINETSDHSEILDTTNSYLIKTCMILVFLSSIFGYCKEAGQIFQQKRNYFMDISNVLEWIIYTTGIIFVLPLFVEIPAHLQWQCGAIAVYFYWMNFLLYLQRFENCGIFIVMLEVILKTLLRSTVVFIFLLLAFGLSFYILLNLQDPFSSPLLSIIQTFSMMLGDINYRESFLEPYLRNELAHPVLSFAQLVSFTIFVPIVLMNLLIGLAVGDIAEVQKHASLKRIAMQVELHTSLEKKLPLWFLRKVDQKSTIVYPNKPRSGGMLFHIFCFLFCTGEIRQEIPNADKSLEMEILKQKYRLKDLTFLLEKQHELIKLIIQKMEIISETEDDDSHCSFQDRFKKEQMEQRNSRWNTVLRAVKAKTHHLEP

SMILES	IC50 [nM]
O=C(Nc1ccc(Cl)cc1)O[C@@H](CN1CCO[C@@H](c2cccc(C(F)(F)F)c2)C1)C(F)(F)F [Example 12, (4-Chlorophenyl)-carbamic acid (S)-2,2,2-trifluoro-1-[(S)-2-(3-trifluoromethylphenyl)-morpholin-4-ylmethyl]-ethyl ester hydrochloride]	108
O=C(Nc1ccc(Cl)c(F)c1)O[C@@H](CN1CCO[C@@H](c2ccc(C(F)(F)F)cc2)C1)C(F)(F)F [Example 32, (4-Chloro-3-fluorophenyl)-carbamic acid (S)-2,2,2-trifluoro-1-[(S)-2-(4-trifluoromethylphenyl)-morpholin-4-ylmethyl]-ethyl ester hydrochloride]	451
O=C(Nc1ccc(Cl)cc1)O[C@@H](CN1CCO[C@H](Cc2ccccc2)C1)C(F)(F)F [Example 9, (4-Chlorophenyl)-carbamic acid (S)-1-((R)-2-benzyl-morpholin-4-ylmethyl)-2,2,2-trifluoroethyl ester hydrochloride]	121
O=C(Nc1ccc(Cl)c(F)c1)O[C@@H](CN1CCO[C@H](c2ccnc(C(F)(F)F)n2)C1)C(F)(F)F [Example 24, (4-Chloro-3-fluorophenyl)-carbamic acid (S)-2,2,2-trifluoro-1-[(S)-2-(2-trifluoromethylpyrimidin-4-yl)-morpholin-4-ylmethyl]-ethyl ester hydrochloride]	71.1
O=C(Nc1ccc(Cl)c(F)c1)O[C@@H](CN1CCO[C@@H](c2ccc(F)c(F)c2)C1)C(F)(F)F (single isomer, unassigned) [Example 35, hydrochloride]	196
O=C(C[C@@H](CN1CCO[C@H](c2cccc(C(F)(F)F)c2)C1)C(F)(F)F)Nc1ccc(Cl)c(F)c1 [Example 39, (S)—N-(4-chloro-3-fluorophenyl)-4,4,4-trifluoro-3-[(R)-2-(3-trifluoromethylphenyl)-morpholin-4-ylmethyl]-butyramide]	73.8
CC(C)c1nccc([C@@H]2CN(C[C@H](OC(=O)Nc3ccc(Cl)c(F)c3)C(F)(F)F)CCO2)n1 [Example 25, (4-Chloro-3-fluorophenyl)-carbamic acid (S)-2,2,2-trifluoro-1-[(S)-2-(2-isopropylpyrimidin-4-yl)-morpholin-4-ylmethyl]-ethyl ester hydrochloride]	103
O=C(Nc1ccc(Cl)cc1)O[C@@H](CN1CCOC(c2ccc(F)cc2)C1)C(F)(F)F (stereo partly drawn) [Example 42, (4-Chlorophenyl)carbamic acid (S)-2,2,2-trifluoro-1-[2-(4-fluorophenyl)-morpholin-4-ylmethyl]-ethyl ester hydrochloride]	83.4
CC(C)c1nccc([C@H]2CN(C[C@H](OC(=O)Nc3ccc(Cl)c(F)c3)C(F)(F)F)CCO2)n1 (single isomer, unassigned) [Example 26, hydrochloride]	846
O=C(Nc1ccc(Cl)c(F)c1)O[C@@H](CN1CCO[C@H](c2ccc(F)cc2)C1)C(F)(F)F [Example 36, (4-Chloro-3-fluorophenyl)carbamic acid (S)-1-[(R)-2-(4-fluorophenyl)-morpholin-4-ylmethyl]-2,2,2-trifluoroethyl ester hydrochloride]	92.2
O=C(Nc1ccc(Cl)cc1)O[C@@H](CN1CCOC(c2cc(Cl)cc(Cl)c2)C1)C(F)(F)F (stereo partly drawn) [Example 44, (4-Chlorophenyl)-carbamic acid (S)-2,2,2-trifluoro-1-[2-(3,5-dichlorophenyl)-morpholin-4-ylmethyl]-ethyl ester hydrochloride]	10.3
O=C(Nc1ccc(Cl)c(F)c1)O[C@@H](CN1CCO[C@H](c2ccc(F)c(F)c2)C1)C(F)(F)F [Example 34, (4-Chloro-3-fluorophenyl)-carbamic acid (S)-1-[(R)-2-(3,4-difluorophenyl)-morpholin-4-ylmethyl]-2,2,2-trifluoroethyl ester hydrochloride]	37.6
O=C(Nc1ccc(Cl)cc1)OC(CN1CCOCC1)C(F)(F)F (stereo not drawn) [Example 41, (4-Chlorophenyl)-carbamic acid 2,2,2-trifluoro-1-morpholin-4-ylmethyl-ethyl ester]	2140
O=C(Nc1ccc(Cl)cc1)O[C@@H](CN1CCO[C@H](c2ccc(C(F)(F)F)cc2)C1)C(F)(F)F [Example 29, (4-Chlorophenyl)-carbamic acid (S)-2,2,2-trifluoro-1-[(R)-2-(4-trifluoromethylphenyl)-morpholin-4-ylmethyl]-ethyl ester hydrochloride]	7.64
O=C(Nc1ccc(Cl)nc1)O[C@@H](CN1CCOC(c2cccc(C(F)(F)F)c2)C1)C(F)(F)F (stereo partly drawn) [Example 38, (6-Chloropyridin-3-yl)carbamic acid (S)-2,2,2-trifluoro-1-[2-3-trifluoromethylphenyl]-morpholin-4-ylmethyl]-ethyl ester hydrochloride]	78
